pIC50: −log10 of the molar value. Where two headings read alike, the source gives them in different places.
Columns and labels:
[1] = molecular target: T1, human N-type Ca channel (Homo sapiens, UniProt Q00975); experiment: Electrophysiological response, QPatch (depolarization -80 mV to +20 mV)
[2] = molecular target: T1, human N-type Ca channel; experiment: Calcium influx assay (FDSS), KCl depolarization, Fluo8 dye; type: cell-based; set-up: host or cells: HEK 293; details: HEK 293 cells expressing human N-type Ca channel; 100 mM KCl; read-out: N Type IC50 Data FDSS
Protocol: All cell culture reagents were procured from HyClone and other reagents were from Fisher. Recombinant HEK 293 cells expressing human N-type Ca channel (Millipore) were maintained in DMEM F12 containing 10% FBS and selection antibiotics at 37 °C in 5% CO2.
Cells were incubated at 30 °C in 5% CO2 overnight. The medium was removed and cells were loaded with Fluo8 dye (AAT Bioquest) at 37 °C and 30 °C, 30 min each in darkness. Cells were washed four times with wash buffer (16 mM Herep pH 7.2, 2 mM CaCl2, 1 mM MgCl2, 5 mM glucose, 140 mM choline chloride and 2 mM KCl) leaving 15 µL buffer after the last wash. Compounds of Formula (I), serially diluted, were added to the cell plate. The plates were incubated in darkness for 15 min. Cells were depolarized with 100 mM KCl and Ca influx was measured.

[3] = N Type IC50 Data Qpatch Pulse=1, Pulse=1, concentration range 0.3-10 µM
[4] = N Type IC50 Data Qpatch Pulse=15, Pulse=15, concentration range 0.3-10 µM
[5] = N Type IC50 Data Qpatch Pulse=1, Pulse=1, concentration range 0.01-1 µM
[6] = N Type IC50 Data Qpatch Pulse=15, Pulse=15, concentration range 0.01-1 µM
[7] = Pulse=1, concentration range 0.01-1 µM
[8] = Pulse=15, concentration range 0.01-1 µM
[9] = read-out: N Type IC50 Data Qpatch Pulse=1, Pulse=1, concentration range 0.01-1 µM
[10] = read-out: N Type IC50 Data Qpatch Pulse=15, Pulse=15, concentration range 0.01-1 µM
[11] = Pulse=15, concentration range 0.01-0.3 µM
[12] = N Type IC50 Data Qpatch Pulse=1, Pulse=1, concentration range 0.01-0.3 µM
[13] = read-out: Qpatch Pulse=1 (percent inhibition)

T1 sequence (Q00975 whole entry): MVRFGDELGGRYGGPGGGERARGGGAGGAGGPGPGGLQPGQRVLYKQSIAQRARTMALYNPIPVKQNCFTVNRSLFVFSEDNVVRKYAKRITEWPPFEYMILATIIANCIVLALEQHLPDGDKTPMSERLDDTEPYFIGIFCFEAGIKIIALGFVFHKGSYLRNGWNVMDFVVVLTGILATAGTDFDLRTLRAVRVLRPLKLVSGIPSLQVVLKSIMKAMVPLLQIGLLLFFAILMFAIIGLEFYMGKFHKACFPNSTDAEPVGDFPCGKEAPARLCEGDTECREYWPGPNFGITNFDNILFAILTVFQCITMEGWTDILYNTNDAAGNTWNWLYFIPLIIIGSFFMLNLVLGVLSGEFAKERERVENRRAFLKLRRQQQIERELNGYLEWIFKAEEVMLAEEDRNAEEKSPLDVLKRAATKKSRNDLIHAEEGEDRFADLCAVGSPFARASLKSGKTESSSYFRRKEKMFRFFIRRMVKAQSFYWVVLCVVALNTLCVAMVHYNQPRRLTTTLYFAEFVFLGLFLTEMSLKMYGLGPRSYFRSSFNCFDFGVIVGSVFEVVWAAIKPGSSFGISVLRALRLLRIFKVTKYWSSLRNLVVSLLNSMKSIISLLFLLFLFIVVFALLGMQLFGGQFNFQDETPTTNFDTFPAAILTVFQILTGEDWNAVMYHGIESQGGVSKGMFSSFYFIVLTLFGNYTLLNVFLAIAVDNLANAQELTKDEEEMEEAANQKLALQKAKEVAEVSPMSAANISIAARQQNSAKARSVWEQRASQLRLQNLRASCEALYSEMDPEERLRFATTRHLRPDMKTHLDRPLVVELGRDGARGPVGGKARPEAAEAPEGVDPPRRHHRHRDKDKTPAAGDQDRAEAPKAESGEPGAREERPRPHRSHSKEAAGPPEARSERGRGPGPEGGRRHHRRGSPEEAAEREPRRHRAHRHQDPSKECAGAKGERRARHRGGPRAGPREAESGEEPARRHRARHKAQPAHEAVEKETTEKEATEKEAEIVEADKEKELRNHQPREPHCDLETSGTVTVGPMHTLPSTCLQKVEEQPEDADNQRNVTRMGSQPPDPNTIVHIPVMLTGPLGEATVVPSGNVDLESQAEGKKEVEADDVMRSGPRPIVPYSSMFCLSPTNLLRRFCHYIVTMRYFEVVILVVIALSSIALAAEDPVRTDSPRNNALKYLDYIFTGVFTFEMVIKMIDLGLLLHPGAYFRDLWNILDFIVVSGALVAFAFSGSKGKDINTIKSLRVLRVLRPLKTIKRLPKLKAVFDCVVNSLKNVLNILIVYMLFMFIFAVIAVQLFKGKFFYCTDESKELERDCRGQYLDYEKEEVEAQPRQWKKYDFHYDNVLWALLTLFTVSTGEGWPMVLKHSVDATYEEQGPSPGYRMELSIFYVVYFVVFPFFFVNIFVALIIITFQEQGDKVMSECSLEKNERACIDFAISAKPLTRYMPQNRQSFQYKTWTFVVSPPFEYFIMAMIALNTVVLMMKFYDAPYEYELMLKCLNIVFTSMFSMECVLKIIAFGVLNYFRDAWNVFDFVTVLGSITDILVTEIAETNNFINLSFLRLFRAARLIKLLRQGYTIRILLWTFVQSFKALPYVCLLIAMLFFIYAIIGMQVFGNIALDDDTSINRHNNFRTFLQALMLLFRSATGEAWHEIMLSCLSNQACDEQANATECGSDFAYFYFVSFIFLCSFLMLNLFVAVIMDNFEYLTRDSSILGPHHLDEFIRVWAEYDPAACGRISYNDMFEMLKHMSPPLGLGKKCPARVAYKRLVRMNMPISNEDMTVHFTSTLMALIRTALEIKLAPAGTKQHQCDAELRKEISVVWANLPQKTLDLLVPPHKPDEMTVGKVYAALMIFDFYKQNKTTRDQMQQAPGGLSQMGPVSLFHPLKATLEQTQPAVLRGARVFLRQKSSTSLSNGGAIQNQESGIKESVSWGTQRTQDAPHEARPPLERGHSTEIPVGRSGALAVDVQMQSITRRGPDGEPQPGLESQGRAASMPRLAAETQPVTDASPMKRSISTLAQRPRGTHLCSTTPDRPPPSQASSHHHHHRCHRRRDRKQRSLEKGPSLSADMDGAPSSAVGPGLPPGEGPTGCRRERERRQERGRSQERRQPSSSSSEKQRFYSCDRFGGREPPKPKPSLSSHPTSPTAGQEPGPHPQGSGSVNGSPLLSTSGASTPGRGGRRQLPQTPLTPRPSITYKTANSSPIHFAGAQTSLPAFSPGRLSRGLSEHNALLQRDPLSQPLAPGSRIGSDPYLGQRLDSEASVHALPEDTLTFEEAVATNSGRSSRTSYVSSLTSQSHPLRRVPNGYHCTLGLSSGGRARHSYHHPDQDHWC
T1 sequence (P54284 whole entry partner): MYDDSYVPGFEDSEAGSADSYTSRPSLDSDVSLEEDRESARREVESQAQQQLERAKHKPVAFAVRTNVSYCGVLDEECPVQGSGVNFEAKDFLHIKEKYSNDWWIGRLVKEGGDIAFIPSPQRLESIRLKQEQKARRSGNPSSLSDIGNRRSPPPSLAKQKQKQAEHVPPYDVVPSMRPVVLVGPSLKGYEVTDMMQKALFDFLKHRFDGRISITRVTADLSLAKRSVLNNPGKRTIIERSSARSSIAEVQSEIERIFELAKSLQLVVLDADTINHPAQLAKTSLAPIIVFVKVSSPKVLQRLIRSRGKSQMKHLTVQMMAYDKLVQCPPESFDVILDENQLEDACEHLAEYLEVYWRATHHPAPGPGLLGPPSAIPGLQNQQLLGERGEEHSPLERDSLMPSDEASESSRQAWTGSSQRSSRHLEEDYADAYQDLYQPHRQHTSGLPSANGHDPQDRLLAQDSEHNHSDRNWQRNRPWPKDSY
T1 sequence (P54289 25-956 partner limits assumed): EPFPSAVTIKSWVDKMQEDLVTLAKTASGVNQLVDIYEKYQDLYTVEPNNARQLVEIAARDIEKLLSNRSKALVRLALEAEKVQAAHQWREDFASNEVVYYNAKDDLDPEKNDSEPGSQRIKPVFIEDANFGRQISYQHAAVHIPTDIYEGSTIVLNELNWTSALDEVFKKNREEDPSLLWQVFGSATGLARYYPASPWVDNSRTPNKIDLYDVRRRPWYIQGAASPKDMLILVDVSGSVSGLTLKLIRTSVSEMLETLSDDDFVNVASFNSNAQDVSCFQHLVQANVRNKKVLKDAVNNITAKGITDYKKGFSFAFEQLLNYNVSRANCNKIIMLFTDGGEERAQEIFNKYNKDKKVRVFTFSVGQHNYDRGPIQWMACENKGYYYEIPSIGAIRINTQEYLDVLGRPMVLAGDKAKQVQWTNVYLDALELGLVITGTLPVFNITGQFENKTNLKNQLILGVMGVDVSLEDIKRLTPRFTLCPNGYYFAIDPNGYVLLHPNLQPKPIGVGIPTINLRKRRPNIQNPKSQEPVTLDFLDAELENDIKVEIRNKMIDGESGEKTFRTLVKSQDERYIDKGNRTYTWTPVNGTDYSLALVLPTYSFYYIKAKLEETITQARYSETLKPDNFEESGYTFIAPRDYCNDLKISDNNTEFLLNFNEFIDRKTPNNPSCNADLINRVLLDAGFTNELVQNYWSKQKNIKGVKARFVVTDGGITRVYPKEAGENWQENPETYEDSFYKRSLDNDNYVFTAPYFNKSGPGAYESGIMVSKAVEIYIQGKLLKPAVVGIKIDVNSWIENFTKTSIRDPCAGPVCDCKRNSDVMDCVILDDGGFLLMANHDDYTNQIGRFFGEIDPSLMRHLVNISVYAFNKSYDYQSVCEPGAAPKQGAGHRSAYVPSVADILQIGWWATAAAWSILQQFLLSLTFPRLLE
T1 sequence (P54289 957-1103 partner limits assumed): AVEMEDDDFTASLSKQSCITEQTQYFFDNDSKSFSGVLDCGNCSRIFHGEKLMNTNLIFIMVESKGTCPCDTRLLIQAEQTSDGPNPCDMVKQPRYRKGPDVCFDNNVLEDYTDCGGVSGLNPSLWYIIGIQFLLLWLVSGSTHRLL

Question: With COc1ccccc1-c1nc(C2CC(C)(C)OC(C)(C)C2)cn1-c1ccc(C(F)(F)F)nc1 [Compound 53, 5-(2-(2-methoxyphenyl)-4-(2,2,6,6-tetramethyltetrahydro-2H-pyran-4-yl)-1H-imidazol-1-yl)-2-(trifluoromethyl)pyridine] as the compound, how does the pIC50 [1, 3] read?
Answer: 5.19

Question: What about the pIC50 [1, 4] of the same compound?
Answer: 5.70

Question: What about the pIC50 [2] of the same compound?
Answer: 7.02

Question: What does the source list for COc1ncccc1-c1nc(C2CC(C)(C)OC(C)(C)C2)cn1-c1ccc(C(F)(F)F)nc1 [Compound 54, 2-methoxy-3-(4-(2,2,6,6-tetramethyltetrahydro-2H-pyran-4-yl)-1-(6-(trifluoromethyl)pyridin-3-yl)-1H-imidazol-2-yl)pyridine]?
Answer: pIC50 [1, 5]: 6.52; pIC50 [1, 6]: 6.63; N Type IC50 Data Qpatch Pulse=1 [1, 7]: Poor fit; N Type IC50 Data Qpatch Pulse=15 [1, 8]: Poor fit; pIC50 [2]: 5.71

Question: CC1(C)CC(c2cn(-c3ccc(Cl)cc3)c(CC3CC3)n2)CC(C)(C)O1 [Compound 55, 1-(4-chlorophenyl)-2-(cyclopropylmethyl)-4-(2,2,6,6-tetramethyltetrahydro-2H-pyran-4-yl)-1H-imidazole] was tested. Which pIC50 [1, 6] did it give?
Answer: 6.11

Question: What about the pIC50 [2] of the same compound?
Answer: 6.42

Question: How did the pIC50 [1, 9] turn out when CC1(C)CC(c2cn(-c3ccc(Cl)cc3)c(C3CC3)n2)CC(C)(C)O1 [Compound 56, 1-(4-chlorophenyl)-2-cyclopropyl-4-(2,2,6,6-tetramethyltetrahydro-2H-pyran-4-yl)-1H-imidazole] was run?
Answer: < 6.00

Question: And the pIC50 [1, 10]?
Answer: < 6.00

Question: What about the pIC50 [2] of the same compound?
Answer: 5.78

Question: CC1(C)CC(c2cn(-c3ccc(C#N)cc3)c(C3CC3)n2)CC(C)(C)O1 [Compound 57, 4-(2-cyclopropyl-4-(2,2,6,6-tetramethyltetrahydro-2H-pyran-4-yl)-1H-imidazol-1-yl)benzonitrile] was tested. Which pIC50 [1, 9] did it give?
Answer: < 6.00

Question: And the pIC50 [1, 10]?
Answer: < 6.00

Question: And the pIC50 [2]?
Answer: 5.00

Question: With CC1(C)CC(c2cn(-c3ccc(C#N)cc3)c(CC3CC3)n2)CC(C)(C)O1 [Compound 58, 4-(2-(cyclopropylmethyl)-4-(2,2,6,6-tetramethyltetrahydro-2H-pyran-4-yl)-1H-imidazol-1-yl)benzonitrile] as the compound, how does the pIC50 [1, 9] read?
Answer: < 6.00

Question: What about the pIC50 [1, 10] of the same compound?
Answer: < 6.00

Question: What about the pIC50 [2] of the same compound?
Answer: 5.32

Question: Which results are given for CC1(C)CC(c2cn(-c3ccc(C(F)(F)F)nc3)c(CC3CC3)n2)CC(C)(C)O1 [Compound 59, 5-(2-(cyclopropylmethyl)-4-(2,2,6,6-tetramethyltetrahydro-2H-pyran-4-yl)-1H-imidazol-1-yl)-2-(trifluoromethyl)pyridine]?
Answer: N Type IC50 Data Qpatch Pulse=1 ([1]; Pulse=1, concentration range 0.01-0.3 µM): poor fit(0.01-0.3 µM); N Type IC50 Data Qpatch Pulse=15 [1, 11]: poor fit(0.01-0.3 µM); pIC50 [2]: 5.36

Question: What does the source list for CCOc1nccnc1-c1nc(C2CC(C)(C)OC(C)(C)C2)cn1-c1ccc(Cl)cc1 [Compound 60, 2-(1-(4-chlorophenyl)-4-(2,2,6,6-tetramethyltetrahydro-2H-pyran-4-yl)-1H-imidazol-2-yl)-3-ethoxypyrazine]?
Answer: pIC50 [1, 12]: 6.61; N Type IC50 Data Qpatch Pulse=15 [1, 11]: poor fit(0.01-0.3 µM); pIC50 [2]: 6.49

Question: What does the source list for COc1ccccc1-c1nc(C2CC(C)(C)OC(C)(C)C2)cn1-c1ccc(OC(F)F)cc1 [Compound 61, 1-(4-(difluoromethoxy)phenyl) -2-(2-methoxyphenyl)-4-(2,2,6,6-tetramethyltetrahydro-2H-pyran-4-yl)-1H-imidazole]?
Answer: pIC50 [1, 12]: 6.12; pIC50 ([1]; N Type IC50 Data Qpatch Pulse=15, Pulse=15, concentration range 0.01-0.3 µM): 5.98; pIC50 [2]: 7.43

Question: Which results are given for COc1ccccc1-c1nc(C2CC(C)(C)OC(C)(C)C2)cn1-c1ccc(Br)c(F)c1 [Compound 62, 1-(4-bromo-3-fluorophenyl)-2-(2-methoxyphenyl)-4-(2,2,6,6-tetramethyltetrahydro-2H-pyran-4-yl)-1H-imidazole]?
Answer: pIC50 [1, 4]: 6.38; inhibition at 10 µM [1, 13]: 81%; pIC50 [2]: 6.75

Question: How did the pIC50 [1, 4] turn out when COc1ccccc1-c1nc(C2CC(C)(C)OC(C)(C)C2)cn1-c1ccc(F)c(Br)c1 [Compound 63, 1-(3-bromo-4-fluorophenyl)-2-(2-methoxyphenyl)-4-(2,2,6,6-tetramethyltetrahydro-2H-pyran-4-yl)-1H-imidazole] was run?
Answer: 5.46

Question: What about the inhibition at 10 µM [1, 13] of the same compound?
Answer: 53%

Question: What about the pIC50 [2] of the same compound?
Answer: 6.67

Question: COc1ncccc1-c1nc(C2CC(C)(C)OC(C)(C)C2)cn1-c1ccc(F)c(Br)c1 [Compound 64, 3-(1-(3-bromo-4-fluorophenyl)-4-(2,2,6,6-tetramethyltetrahydro-2H-pyran-4-yl)-1H-imidazol-2-yl)-2-methoxypyridine] was tested. Which pIC50 [1, 3] did it give?
Answer: 5.39

Question: And the pIC50 [1, 4]?
Answer: 5.76

Question: And the pIC50 [2]?
Answer: 6.44

Question: With COc1ncccc1-c1nc(C2CC(C)(C)OC(C)(C)C2)cn1-c1ccc(Br)c(F)c1 [Compound 65, 3-(1-(4-bromo-3-fluorophenyl)-4-(2,2,6,6-tetramethyltetrahydro-2H-pyran-4-yl)-1H-imidazol-2-yl)-2-methoxypyridine] as the compound, how does the pIC50 [1, 4] read?
Answer: 5.07

Question: What about the inhibition at 10 µM [1, 13] of the same compound?
Answer: 58%

Question: What about the pIC50 [2] of the same compound?
Answer: 6.65

Question: Which results are given for COc1cnccc1-c1nc(C2CC(C)(C)OC(C)(C)C2)cn1-c1ccc(Cl)cc1 [Compound 66, 4-(1-(4-chlorophenyl)-4-(2,2,6,6-tetramethyltetrahydro-2H-pyran-4-yl)-1H-imidazol-2-yl)-3-methoxypyridine]?
Answer: pIC50 [1, 4]: 5.89; pIC50 [2]: 7.31

Question: With COc1ccncc1-c1nc(C2CC(C)(C)OC(C)(C)C2)cn1-c1ccc(Cl)cc1 [Compound 68, 3-(1-(4-chlorophenyl)-4-(2,2,6,6-tetramethyltetrahydro-2H-pyran-4-yl)-1H-imidazol-2-yl)-4-methoxypyridine] as the compound, how does the pIC50 [1, 4] read?
Answer: 5.34

Question: What about the pIC50 [2] of the same compound?
Answer: 6.96

Question: With COc1ccncc1-c1nc(C2CC(C)(C)OC(C)(C)C2)cn1-c1ccc(F)cc1 [Compound 69, 3-(1-(4-fluorophenyl)-4-(2,2,6,6-tetramethyltetrahydro-2H-pyran-4-yl)-1H-imidazol-2-yl)-4-methoxypyridine] as the compound, how does the inhibition at 10 µM [1, 13] read?
Answer: 53%

Question: What about the inhibition at 10 µM ([1]; read-out: Qpatch Pulse=15 (percent inhibition)) of the same compound?
Answer: 29%

Question: What about the pIC50 [2] of the same compound?
Answer: 5.84

Question: Which inhibition at 10 µM [1, 13] does the source give for COc1cccnc1-c1nc(C2CC(C)(C)OC(C)(C)C2)cn1-c1ccc(F)cc1 [Compound 70, 2-(1-(4-fluorophenyl)-4-(2,2,6,6-tetramethyltetrahydro-2H-pyran-4-yl)-1H-imidazol-2-yl)-3-methoxypyridine] here?
Answer: 41%

Question: And the pIC50 [2]?
Answer: 6.06

Question: With COc1ncccc1-c1nc(C2CC(C)(C)OC(C)(C)C2)cn1-c1cc(F)ccc1F [Compound 71, 3-(1-(2,5-difluorophenyl)-4-(2,2,6,6-tetramethyltetrahydro-2H-pyran-4-yl)-1H-imidazol-2-yl)-2-methoxypyridine] as the compound, how does the pIC50 [1, 5] read?
Answer: 5.23

Question: And the “N Type IC50 Data Qpatch Pulse=15” value [1, 8]?
Answer: poor fit(0.01- 1 µM)

Question: What about the pIC50 [2] of the same compound?
Answer: 6.37

Question: Which results are given for COc1ncccc1-c1nc(C2CC(C)(C)OC(C)(C)C2)cn1-c1cc(F)cc(F)c1 [Compound 72, 3-(1-(3,5-difluorophenyl)-4-(2,2,6,6-tetramethyltetrahydro-2H-pyran-4-yl)-1H-imidazol-2-yl)-2-methoxypyridine]?
Answer: N Type IC50 Data Qpatch Pulse=1 [1, 7]: poor fit(0.01- 1 µM); N Type IC50 Data Qpatch Pulse=15 [1, 8]: poor fit(0.01- 1 µM); pIC50 [2]: 5.62

Question: COc1ncccc1-c1nc(C2CC(C)(C)OC(C)(C)C2)cn1-c1cc(F)cc(C#N)c1 [Compound 73, 3-fluoro-5-(2-(2-methoxypyridin-3-yl)-4-(2,2,6,6-tetramethyltetrahydro-2H-pyran-4-yl)-1H-imidazol-1-yl)benzonitrile] was tested. Which “N Type IC50 Data Qpatch Pulse=1” value [1, 7] did it give?
Answer: poor fit(0.01- 1 µM)

Question: What about the “N Type IC50 Data Qpatch Pulse=15” value [1, 8] of the same compound?
Answer: poor fit(0.01- 1 µM)

Question: What about the pIC50 [2] of the same compound?
Answer: 5.09

Question: How did the pIC50 [1, 3] turn out when CCOc1ccc(-n2cc(C3CC(C)(C)OC(C)(C)C3)nc2-c2cccnc2OC)cn1 [Compound 75, 3-(1-(6-ethoxypyridin-3-yl)-4-(2,2,6,6-tetramethyltetrahydro-2H-pyran-4-yl)-1H-imidazol-2-yl)-2-methoxypyridine] was run?
Answer: 5.01

Question: And the pIC50 [1, 4]?
Answer: 5.38

Question: And the pIC50 [2]?
Answer: 5.69

Question: With COc1ncccc1-c1nc(C2CC(C)(C)OC(C)(C)C2)cn1-c1ccc(C#N)cc1F [Compound 76, 3-fluoro-4-(2-(2-methoxypyridin-3-yl)-4-(2,2,6,6-tetramethyltetrahydro-2H-pyran-4-yl)-1H-imidazol-1-yl)benzonitrile] as the compound, how does the pIC50 [1, 5] read?
Answer: < 6.00

Question: And the pIC50 [1, 10]?
Answer: < 6.00

Question: What about the pIC50 [2] of the same compound?
Answer: 6.82

Question: With COc1cc(-n2cc(C3CC(C)(C)OC(C)(C)C3)nc2-c2cccnc2OC)ccc1C#N [Compound 77, 2-methoxy-4-(2-(2-methoxypyridin-3-yl)-4-(2,2,6,6-tetramethyltetrahydro-2H-pyran-4-yl)-1H-imidazol-1-yl)benzonitrile] as the compound, how does the pIC50 [1, 5] read?
Answer: < 6.00

Question: And the pIC50 [1, 10]?
Answer: < 6.00

Question: And the pIC50 [2]?
Answer: 5.00

Question: How did the pIC50 [1, 10] turn out when COc1ncccc1-c1nc(C2CC(C)(C)OC(C)(C)C2)cn1-c1ccc(C#N)c(Cl)c1 [Compound 78, 2-chloro-4-(2-(2-methoxypyridin-3-yl)-4-(2,2,6,6-tetramethyltetrahydro-2H-pyran-4-yl)-1H-imidazol-1-yl)benzonitrile] was run?
Answer: < 6.00

Question: What about the pIC50 [2] of the same compound?
Answer: 6.63
